As a reminder, the IC50 is the concentration that inhibits the measured activity by half. Low values mean inhibition by little substance, high ones a need for much substance. In general, inhibition refers to the drop in the measured response relative to a control, in per cent. A high value points to a strong effect.

The target of experiment [1] is T1, Nitric oxide synthase 1 (Homo sapiens, UniProt P29475). The experiment can be described thus: Inhibitory activity against Neuronal nitric oxide synthase.
Experiment [2] has as its target T2, Nitric oxide synthase, inducible (Homo sapiens, UniProt P35228). The experiment can be described thus: Inhibitory activity against Inducible nitric oxide synthase.
For another experiment, the target named is T3, Nitric oxide synthase 3 (Homo sapiens, UniProt P29474).
T3 sequence (P29474 whole entry): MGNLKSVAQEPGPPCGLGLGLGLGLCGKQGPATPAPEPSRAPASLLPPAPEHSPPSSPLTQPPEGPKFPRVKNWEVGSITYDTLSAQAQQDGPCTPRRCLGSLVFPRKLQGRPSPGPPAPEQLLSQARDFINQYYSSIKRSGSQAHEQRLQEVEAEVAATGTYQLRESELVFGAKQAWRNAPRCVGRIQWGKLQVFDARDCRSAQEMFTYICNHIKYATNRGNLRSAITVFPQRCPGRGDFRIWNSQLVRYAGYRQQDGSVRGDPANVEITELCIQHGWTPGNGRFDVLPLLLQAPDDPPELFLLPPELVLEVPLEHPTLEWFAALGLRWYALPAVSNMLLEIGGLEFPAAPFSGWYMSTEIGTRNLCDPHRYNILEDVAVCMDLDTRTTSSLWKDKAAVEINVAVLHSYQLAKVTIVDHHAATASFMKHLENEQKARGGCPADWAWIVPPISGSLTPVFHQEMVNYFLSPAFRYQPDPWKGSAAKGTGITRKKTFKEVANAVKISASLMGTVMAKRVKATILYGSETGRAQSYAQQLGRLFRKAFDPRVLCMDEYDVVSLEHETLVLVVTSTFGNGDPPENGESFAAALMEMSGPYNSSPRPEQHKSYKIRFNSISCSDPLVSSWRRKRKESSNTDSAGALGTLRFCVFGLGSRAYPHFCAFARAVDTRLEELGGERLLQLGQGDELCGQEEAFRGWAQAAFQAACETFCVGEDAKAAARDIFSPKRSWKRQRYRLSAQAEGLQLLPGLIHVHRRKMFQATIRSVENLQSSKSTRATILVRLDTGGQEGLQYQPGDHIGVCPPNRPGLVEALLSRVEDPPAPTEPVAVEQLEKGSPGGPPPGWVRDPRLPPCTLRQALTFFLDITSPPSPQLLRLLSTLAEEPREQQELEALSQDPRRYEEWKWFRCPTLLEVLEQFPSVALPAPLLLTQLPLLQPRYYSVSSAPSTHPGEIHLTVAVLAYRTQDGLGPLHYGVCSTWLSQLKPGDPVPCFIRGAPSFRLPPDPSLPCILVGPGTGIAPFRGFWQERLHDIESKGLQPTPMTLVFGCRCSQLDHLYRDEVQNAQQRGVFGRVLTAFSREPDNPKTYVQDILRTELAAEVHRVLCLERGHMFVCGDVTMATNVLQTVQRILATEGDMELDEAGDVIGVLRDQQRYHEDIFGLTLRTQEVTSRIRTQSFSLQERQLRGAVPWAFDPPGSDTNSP
The experiment can be described thus: Inhibitory activity against Endothelial nitric oxide synthase.

In experiment [3] the target is T1, Nitric oxide synthase 1. The experiment can be described thus: Compound was evaluated for in vitro inhibitory activity against Neuronal nitric oxide synthase. To be noted: concentration not given here.
The target of experiment [4] is T2, Nitric oxide synthase, inducible. The experiment can be described thus: In vitro inhibitory activity against Inducible nitric oxide synthase at 50 uM concentration.

T1 sequence (P29475 whole entry): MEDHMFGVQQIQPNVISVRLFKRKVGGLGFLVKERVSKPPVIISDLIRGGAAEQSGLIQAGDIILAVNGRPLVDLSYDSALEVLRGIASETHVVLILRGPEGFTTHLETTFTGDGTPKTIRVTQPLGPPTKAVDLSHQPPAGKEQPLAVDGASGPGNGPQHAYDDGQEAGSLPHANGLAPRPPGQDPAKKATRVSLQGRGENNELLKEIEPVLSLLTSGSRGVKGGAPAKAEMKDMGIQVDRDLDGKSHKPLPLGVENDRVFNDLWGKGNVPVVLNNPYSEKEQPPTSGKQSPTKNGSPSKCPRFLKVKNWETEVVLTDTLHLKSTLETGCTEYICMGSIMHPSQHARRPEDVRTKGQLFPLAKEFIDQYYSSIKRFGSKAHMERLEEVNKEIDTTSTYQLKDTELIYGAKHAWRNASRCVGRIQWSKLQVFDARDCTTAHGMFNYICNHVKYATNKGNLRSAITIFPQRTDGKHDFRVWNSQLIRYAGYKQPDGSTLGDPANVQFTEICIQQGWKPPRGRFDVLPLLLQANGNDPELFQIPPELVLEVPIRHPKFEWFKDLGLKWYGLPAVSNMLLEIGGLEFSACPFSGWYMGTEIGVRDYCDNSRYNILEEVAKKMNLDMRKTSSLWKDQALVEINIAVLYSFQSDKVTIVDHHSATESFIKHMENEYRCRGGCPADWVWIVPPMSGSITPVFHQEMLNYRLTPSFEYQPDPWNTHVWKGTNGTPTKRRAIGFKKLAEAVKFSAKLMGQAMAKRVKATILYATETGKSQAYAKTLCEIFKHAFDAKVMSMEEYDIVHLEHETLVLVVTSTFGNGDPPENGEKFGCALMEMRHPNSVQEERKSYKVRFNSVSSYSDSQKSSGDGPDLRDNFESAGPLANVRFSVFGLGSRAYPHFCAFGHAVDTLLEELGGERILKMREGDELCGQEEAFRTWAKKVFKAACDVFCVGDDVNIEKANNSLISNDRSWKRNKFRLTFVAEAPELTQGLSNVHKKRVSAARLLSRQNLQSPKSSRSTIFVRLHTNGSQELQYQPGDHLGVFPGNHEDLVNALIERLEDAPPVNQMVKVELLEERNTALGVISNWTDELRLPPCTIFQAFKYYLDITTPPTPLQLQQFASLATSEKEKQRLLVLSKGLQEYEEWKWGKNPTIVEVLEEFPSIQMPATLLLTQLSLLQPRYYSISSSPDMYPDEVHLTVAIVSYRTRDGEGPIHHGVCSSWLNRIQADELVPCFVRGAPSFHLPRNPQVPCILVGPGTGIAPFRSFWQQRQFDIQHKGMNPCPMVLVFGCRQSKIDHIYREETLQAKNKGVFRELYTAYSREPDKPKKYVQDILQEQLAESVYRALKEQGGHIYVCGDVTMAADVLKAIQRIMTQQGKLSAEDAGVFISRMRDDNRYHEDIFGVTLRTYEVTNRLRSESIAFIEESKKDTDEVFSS
T2 sequence (P35228 whole entry): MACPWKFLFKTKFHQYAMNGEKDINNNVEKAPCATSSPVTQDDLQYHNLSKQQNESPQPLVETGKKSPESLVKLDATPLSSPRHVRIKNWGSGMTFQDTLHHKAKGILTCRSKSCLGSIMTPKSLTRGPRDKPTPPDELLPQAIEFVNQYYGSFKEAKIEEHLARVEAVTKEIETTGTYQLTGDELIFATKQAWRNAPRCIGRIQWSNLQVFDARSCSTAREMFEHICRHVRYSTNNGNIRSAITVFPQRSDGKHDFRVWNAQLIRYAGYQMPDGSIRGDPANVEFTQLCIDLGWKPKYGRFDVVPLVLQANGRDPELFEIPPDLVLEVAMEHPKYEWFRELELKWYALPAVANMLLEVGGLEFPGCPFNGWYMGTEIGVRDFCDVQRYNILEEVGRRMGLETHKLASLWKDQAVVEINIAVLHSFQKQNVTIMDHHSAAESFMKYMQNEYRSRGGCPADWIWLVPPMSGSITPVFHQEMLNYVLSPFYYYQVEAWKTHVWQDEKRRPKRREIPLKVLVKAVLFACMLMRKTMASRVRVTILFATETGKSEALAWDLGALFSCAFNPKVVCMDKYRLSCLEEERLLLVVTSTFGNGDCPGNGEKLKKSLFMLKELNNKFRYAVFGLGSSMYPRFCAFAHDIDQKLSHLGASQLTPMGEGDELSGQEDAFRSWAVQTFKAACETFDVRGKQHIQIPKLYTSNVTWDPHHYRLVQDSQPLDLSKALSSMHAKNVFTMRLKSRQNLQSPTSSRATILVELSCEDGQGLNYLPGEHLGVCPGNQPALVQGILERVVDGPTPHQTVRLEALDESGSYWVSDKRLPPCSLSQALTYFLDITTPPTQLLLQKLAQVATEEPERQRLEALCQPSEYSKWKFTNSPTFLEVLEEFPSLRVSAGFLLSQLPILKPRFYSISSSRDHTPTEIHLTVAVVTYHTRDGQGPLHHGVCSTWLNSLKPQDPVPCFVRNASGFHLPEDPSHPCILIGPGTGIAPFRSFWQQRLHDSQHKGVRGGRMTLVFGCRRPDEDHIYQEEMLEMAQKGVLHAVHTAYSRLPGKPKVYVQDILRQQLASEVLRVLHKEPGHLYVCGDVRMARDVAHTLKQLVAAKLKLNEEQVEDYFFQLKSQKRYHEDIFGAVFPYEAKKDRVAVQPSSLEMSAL

For `O=c1oc2ccc(Cl)cc2n1CN1CCOCC1`, the half-inhibitory concentration (IC50) at Nitric oxide synthase 1 [1] was 5.6 µM; in experiment [2], 0.8 µM; against Nitric oxide synthase 3, 14.7 µM.

In the case of `CN(Cc1ccccc1)Cn1c(=O)oc2ccc(Cl)cc21`, the values for the IC50 (against Nitric oxide synthase 1 [1]; in experiment [2]; on Nitric oxide synthase 3) were 11.5 µM, 13.4 µM and 13.6 µM, respectively.

For `Cc1ccc2nc(O)oc2n1`, the figures for the IC50 (at Nitric oxide synthase 1 [1]; in experiment [2]; on Nitric oxide synthase 3) were 50 µM, 7.4 µM and greater than 50 µM, respectively.

Take `Cc1ccc2[nH]c(=O)oc2c1`: the IC50 was 13.1 µM against Nitric oxide synthase 1 [1], greater than 50 µM in experiment [2] and greater than 50 µM against Nitric oxide synthase 3.

`O=c1oc2ccc(Cl)cc2n1CN1CCSCC1`: the half-maximal inhibitory concentration (IC50) at Nitric oxide synthase 1 [1] is 4.4 µM; in experiment [2] it was 3.5 µM; on Nitric oxide synthase 3, 20.3 µM.

With `O=c1[nH]c2cc(F)ccc2o1`, the 50% inhibitory concentration (IC50) (on Nitric oxide synthase 1 [1]; in experiment [2]; at Nitric oxide synthase 3) was greater than 50 µM in each case.

In experiment [2], `Oc1nc2ncccc2o1` came in with an IC50 greater than 50 µM.

For the compound `Cc1cccc2oc(=O)[nH]c12`, the IC50 (at Nitric oxide synthase 1 [1]; in experiment [2]; on Nitric oxide synthase 3) was greater than 50 µM throughout.

As for `O=c1oc2ccc(Cl)cc2n1CN1CCCCC1`, the results for the IC50 (against Nitric oxide synthase 1 [1]; in experiment [2]; on Nitric oxide synthase 3) were 4.6 µM, 1.5 µM and 18.9 µM, respectively.

Take `CN1CCN(Cn2c(=O)oc3ccc(Cl)cc32)CC1`: the half-maximal inhibitory concentration (IC50) was 4.4 µM at Nitric oxide synthase 1 [1], 1.2 µM in experiment [2] and 15.5 µM at Nitric oxide synthase 3.

In the case of `Cc1ccc2oc(O)nc2c1`, the IC50 against Nitric oxide synthase 1 [1] was 50 µM; in experiment [2] it was 9.9 µM; on Nitric oxide synthase 3, 10.6 µM.

Turning to `CN(CCc1ccccc1)Cn1c(=O)oc2ccc(Cl)cc21`, the IC50 against Nitric oxide synthase 1 [1] is 68 µM; in experiment [2] it was 15.9 µM; at Nitric oxide synthase 3 it was 15.9 µM.

Take `CN(Cn1c(=O)oc2ccc(Cl)cc21)c1ccccn1`: the inhibition on Nitric oxide synthase 1 [3] is 71%; in experiment [4], 74%. On Nitric oxide synthase 3, this compound displayed an IC50 of 8.4 µM.

On to `N#Cc1ccc2oc(O)nc2c1`, for which the IC50 against Nitric oxide synthase 1 [1] turned out to be 50 µM; in experiment [2], 14.5 µM; against Nitric oxide synthase 3, 50 µM.

As for `Sc1nc2cc(Cl)ccc2o1`, the half-maximal inhibitory concentration (IC50) (against Nitric oxide synthase 1 [1]; in experiment [2]; against Nitric oxide synthase 3) was greater than 50 µM each time.

On to `O=c1oc2ccc(Cl)cc2n1CCN1CCOCC1`, for which the inhibition in experiment [4] is 0%.

For the origin of these results see ChEMBL document CHEMBL1129221, “Inhibition of nitric oxide synthase by benzoxazolones” (Bioorg Med Chem Lett, 1997).
